From US20170258786A1, “RBP4 ANTAGONISTS FOR THE TREATMENT OF AGE-RELATED MACULAR DEGENERATION AND STARGARDT DISEASE” (The Trustees of Columbia University in the City of New York, priority 2013, published 2017)

Key:
RBP4-TTR interaction = target: T1, RBP4-TTR interaction (Homo sapiens, UniProt P02753); assay: TR-FRET/HTRF assay for antagonists of retinol-induced RBP4-TTR interaction (Example 2, agonist and antagonist mode); assay type: biochemical; conditions: agonist mode, dose titration without retinol
T1 construct: host or cells: E. coli
From the text: TR-FRET (Time-Resolved Fluorescence Resonance Energy Transfer) is an assay format that can be used in characterization of compounds affecting protein-protein interactions (31-33). […] In the presence of retinol, RBP4-TTR interaction induces FRET that can be registered as increased ratio of […] fluorescence signals. Binding of a desired RBP4 antagonist displaces retinol and induces hindrance for RBP4-TTR interaction resulting in the decreased FRET signal (FIG. 7).
The assay was developed using E. coli-expressed MBP-tagged RBP4 and commercially available TTR labeled directly with Eu3+ cryptate. In addition to MBP-RBP4 and Eu3+ (K)-TTR, a detector reagent anti-MBP-d2 was present in the mix. The assay was first optimized in the agonist mode; sensitivity and dynamic range of the assay was […] in respect to RBP4, TTR and detection reagent concentrations.

A2E production = conditions: animal model of excessive bisretinoid accumulation, reference 11; cited from earlier work
serum RBP4 = target: T2, serum RBP4 (Mus musculus, UniProt Q00724); assay: Serum RBP4 measured by ELISA in Abca4-/- mice; assay type: in vivo
T2 construct: There was approximately a 70% reduction in the serum RBP4 level in treated animals; from tissue; host or cells: mouse serum (Abca4-/- and wild-type, 129/SV x C57BL/6J)
Description: The Abca4−/− mouse model manifests accelerated accumulation of lipofuscin in the RPE and is considered a pre-clinical efficacy model for a drug reducing lipofuscin accumulation.
(§1) Ten week-old Abca4 null mutant mice (129/SV×C57BL/6J) bred as previously described were used in the study. Abca4−/− (knockout) and Abca4+/+ (wild-type) mice were raised under 12 h on-off cyclic lighting with an in-cage illuminance of 30-50 lux. For long-term oral dosing A1120 was formulated into Purina 5035 rodent chow at Research Diets, Inc. (New Brunswick, N.J.) to ensure consistent 30 mg/kg daily oral dosing. Animals were administered the A1120-containing chow for 6 weeks.
Blood samples were collected from a tail vein at days 0, 21 and 42 of the A1120 dosing. Whole blood was drawn into a centrifuge tube and was let clot at room temperature for 30 min followed by centrifugation at 2,000×g for 15 minutes at +4′C to collect serum. Serum RBP4 was measured using the RBP4 (mouse/rat) dual ELISA kit (Enzo Life Sciences) following the manufacturer's instructions.

[1] = test system: lipofuscin bisretinoids (A2E, A2-DHP-PE, atRAL di-PE); assay: Lipofuscin bisretinoid levels in eyecups of Abca4-/- mice by HPLC; assay type: in vivo, mouse; conditions: Example 3, treated mice, 30 mg/kg oral
From the text: The Abca4−/− mouse model manifests accelerated accumulation of lipofuscin in the RPE and is considered a pre-clinical efficacy model for a drug reducing lipofuscin accumulation. […] There was approximately a 70% reduction in the serum RBP4 level in treated animals (FIG. 11). Additionally, it was discovered that that the levels of A2E/isoA2E and other bisretinoids were reduced by approximately 50% in treated mice (FIG. 12).
Abca4/Abcr null mutant mice (albino) homozygous for Rpe65-Leu450 are bred genotyped and housed. […] An Alliance system (Waters, Corp, Milford, Mass.) equipped with 2695 Separation Module, 2996 Photodiode Array Detector, a 2475 Multi λ Fluorescence Detector and operating with Empower® software is used for HPLC analysis. […] HPLC quantification is carried out using the Empower® software to determine peak areas. […] Molar quantity per murine eye is determined using calibration curves constructed from known concentrations of purified external standards and by normalizing to the ratio of the HPLC injection volume (10 μL) versus total extract volume. […]
Following euthanasia, posterior eye cups were pooled and homogenized in PBS using a tissue grinder. […] Levels of bisretinoid were determined by reference to external standards of HPLC-purified compound.

ERG b-wave = ERG b-wave after photobleaching; conditions: in vivo
[2] = Signs of toxicity during 6 week chronic dosing of Abca4-/- mice; assay type: in vivo; conditions: 6 week-long chronic dosing, 30 mg/kg
Description: as §1
Administration of A1120 reduces the production of A2E, A2-DHP-PE, and atRAL di-PE in A1120-treated Abca4−/− mice in comparison to the vehicle-treated Abca4−/− animals by approximately 50%.

insulin sensitivity = conditions: reference 12; cited from earlier work
[3] = Abca4-/- mice, 30 mg/kg daily oral in chow

Row | SMILES | Induction of RBP4-TTR interaction (RBP4-TTR interaction) | A2E production in Abca4-/- mice (A2E production) | Serum RBP4 reduction at Week 3 (Day 21) compared with Day 0 (serum RBP4; [3]) [%] | Serum RBP4 reduction at Week 6 (Day 42) compared with Day 0 (serum RBP4; [3]) [%] | Reduction in serum RBP4 level (serum RBP4; orally dosed for 3 weeks at 30 mg/kg, treated animals) [%] | Levels of A2-DHP-PE and atRAL di-PE [1] | Reduction of levels of A2E/isoA2E and other bisretinoids [1] | Effect on ERG b-wave after photobleaching (ERG b-wave) | Signs of compound toxicity such as weight loss or reduction in food consumption [2] | Insulin sensitivity in mouse diabetes models (insulin sensitivity)
1 | CC1=C(/C=C/C(C)=C/C=C/C(C)=C/C(=O)Nc2ccc(O)cc2)C(C)(C)CCC1 [fenretinide, N-(4-hydroxy-phenyl)retinamide] | did not induce RBP4-TTR interaction | reduced A2E production | – | – | – | – | – | – | – | –
2 | O=C(O)c1ccccc1NC(=O)N1CCC(c2ccccc2C(F)(F)F)CC1 [Compound 1, 2(4-(2-(trifluoromethyl)phenyl)piperidine-1-carboxamido)benzoic acid] | did not induce RBP4-TTR interaction | – | 64 | 75 | ~70 | reduced | approximately 50% | does not reduce ERG b-wave | did not note any obvious signs of compound toxicity | did not improve insulin sensitivity
